Format in all cases: biochemical
For one assay, the target named is PKC delta kinase (Homo sapiens, UniProt Q05655). Nature of the assay: PKC delta kinase inhibition, coupled-enzyme (NADH absorbance) assay, Ki. Particulars: 150 μM ATP, 46 nM PKC delta kinase, 30° C. The method in brief: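 Enzyme and compound pre-equilibrated 10 min at 30° C before adding ATP to 150 μM final. Buffer: HEPES pH 7.5 (100 mM), 10 mM MgCl2, 25 mM NaCl, 0.1 mM EDTA, 0.01% Brij.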

In another assay the target is PKC theta kinase (Homo sapiens, UniProt Q04759). Nature of the assay: PKC theta kinase inhibition, coupled-enzyme (NADH absorbance) assay, Ki. Particulars: 240 μM ATP, 18 nM PKC theta kinase, 30° C. The method in brief:
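Enzyme and compound equilibrated 10 min at 30 °C before reaction in HEPES pH 7.5 buffer with MgCl2, NaCl, EDTA and Brij. Activity tracked as NADH loss at 340 nm through a coupled system. Initial-rate data fitted by non-linear regression to give Ki.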

A further assay addresses PKC alpha kinase (Homo sapiens, UniProt P17252). Nature of the assay: PKC alpha kinase inhibition, coupled-enzyme (NADH absorbance) assay, Ki. Particulars: 130 μM ATP, 4.5 nM PKC alpha kinase, 30° C. Summed up: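 Ki derived by non-linear regression of initial rates from a coupled assay tracking NADH absorbance at 340 nm over 15 min at 30 °C. ATP was 130 μM final after a 10 min compound–enzyme preincubation in HEPES pH 7.5 buffer with MgCl2, CaCl2, NaCl, EDTA and Brij.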

Read-outs that look alike come from different tables or passages of the source.

Sequence of PKC theta kinase (Q04759 whole entry): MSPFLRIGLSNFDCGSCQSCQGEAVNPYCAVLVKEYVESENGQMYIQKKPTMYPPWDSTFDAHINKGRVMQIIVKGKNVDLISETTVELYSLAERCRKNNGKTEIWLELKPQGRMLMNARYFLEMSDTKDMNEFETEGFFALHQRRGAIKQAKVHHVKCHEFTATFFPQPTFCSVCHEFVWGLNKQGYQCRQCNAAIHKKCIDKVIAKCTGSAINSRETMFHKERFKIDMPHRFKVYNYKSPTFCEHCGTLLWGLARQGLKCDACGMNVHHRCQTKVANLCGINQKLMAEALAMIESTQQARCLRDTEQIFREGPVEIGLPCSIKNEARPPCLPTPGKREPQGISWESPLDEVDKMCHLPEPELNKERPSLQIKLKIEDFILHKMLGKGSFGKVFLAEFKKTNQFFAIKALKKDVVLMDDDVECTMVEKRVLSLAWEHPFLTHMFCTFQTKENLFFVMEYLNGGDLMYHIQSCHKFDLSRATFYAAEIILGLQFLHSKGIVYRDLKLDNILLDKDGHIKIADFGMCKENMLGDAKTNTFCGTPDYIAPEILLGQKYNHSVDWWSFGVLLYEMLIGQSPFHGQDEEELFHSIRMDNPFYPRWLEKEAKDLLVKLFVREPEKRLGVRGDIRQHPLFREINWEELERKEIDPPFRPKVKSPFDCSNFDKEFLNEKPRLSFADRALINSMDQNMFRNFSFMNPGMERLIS
Sequence of PKC delta kinase (Q05655 whole entry): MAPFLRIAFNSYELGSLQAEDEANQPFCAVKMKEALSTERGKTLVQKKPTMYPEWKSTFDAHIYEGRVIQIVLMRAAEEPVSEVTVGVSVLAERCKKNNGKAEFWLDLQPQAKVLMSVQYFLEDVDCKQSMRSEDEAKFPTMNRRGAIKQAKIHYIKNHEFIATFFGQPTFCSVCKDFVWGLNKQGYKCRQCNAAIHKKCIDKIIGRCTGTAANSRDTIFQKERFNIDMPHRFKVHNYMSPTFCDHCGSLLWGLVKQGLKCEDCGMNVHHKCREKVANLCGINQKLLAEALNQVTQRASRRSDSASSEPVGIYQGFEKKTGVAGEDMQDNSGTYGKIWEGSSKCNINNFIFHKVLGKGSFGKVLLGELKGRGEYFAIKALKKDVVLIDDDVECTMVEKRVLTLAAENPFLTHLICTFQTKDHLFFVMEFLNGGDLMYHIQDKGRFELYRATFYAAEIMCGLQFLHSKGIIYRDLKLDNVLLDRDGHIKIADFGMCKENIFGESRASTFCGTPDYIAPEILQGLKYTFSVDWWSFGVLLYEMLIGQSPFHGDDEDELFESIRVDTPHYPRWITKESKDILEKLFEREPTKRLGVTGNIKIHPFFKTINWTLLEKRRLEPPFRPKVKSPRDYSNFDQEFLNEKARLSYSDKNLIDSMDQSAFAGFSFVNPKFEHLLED

For the compound `CC(C)C[C@H]1CN(c2ccc(C(F)(F)F)c(-c3n[nH]c4ncccc34)n2)CC[C@@H]1N` [Compound 85], the Ki at PKC delta kinase (read-out: Ki PKC delta) is greater than 2000 nM; on PKC theta kinase, less than 500 nM; on PKC alpha kinase, greater than 1250 nM.
Take `CC(C)CC1(C)CN(c2ccc(Cl)c(-c3n[nH]c4ncccc34)n2)CCN1` (stereo not drawn) [Compound 86]: the Ki on PKC delta kinase (read-out: Ki PKC delta), on PKC theta kinase and at PKC alpha kinase was less than 50 nM in each case.
On to `CC(C)(O)C1CN(c2ccc(C(F)(F)F)c(-c3n[nH]c4ncccc34)n2)CCN1` (stereo not drawn) [Compound 87], for which the results for the Ki at PKC delta kinase (read-out: Ki PKC delta), at PKC theta kinase and on PKC alpha kinase were greater than 2000 nM, less than 500 nM and greater than 1250 nM, respectively.
`Fc1ccc(N2CCNCC2)nc1-c1n[nH]c2ncccc12` [Compound 88]: the values for the Ki at PKC delta kinase (Ki PKC delta), at PKC theta kinase and on PKC alpha kinase were less than 2800 nM, less than 500 nM and greater than 1250 nM, respectively.
Take `CC(C)CC1(C)CN(c2cccc(-c3n[nH]c4ncccc34)n2)CCN1` (stereo not drawn) [Compound 89]: the Ki at PKC delta kinase (read-out: Ki PKC delta) is less than 50 nM; at PKC theta kinase it was less than 50 nM; at PKC alpha kinase, less than 500 nM.
In the case of `CC(C)C[C@H]1CN(c2ccc(C(F)(F)F)c(-c3n[nH]c4ncccc34)n2)CC[C@@H]1O` [Compound 90], the Ki at PKC delta kinase (read-out: Ki PKC delta) is greater than 2000 nM; on PKC theta kinase, greater than 700 nM; on PKC alpha kinase, greater than 1250 nM.
On the same counts, the results for `CC(C)C[C@H]1CN(c2ccc(C(F)(F)F)c(-c3n[nH]c4ncccc34)n2)CC[C@H]1O` [Compound 91] are greater than 2000 nM, less than 500 nM and greater than 1250 nM.
On the same counts, the results for `C=C(F)c1cc(-c2n[nH]c3ncccc23)nc(N2CCNCC2)c1` [Compound 92] are less than 500 nM, less than 500 nM and greater than 1250 nM.
Turning to `Cc1cc(-c2n[nH]c3ncccc23)nc(N2CCNCC2)c1` [Compound 93], the Ki at PKC delta kinase (read-out: Ki PKC delta) was greater than 2000 nM; at PKC theta kinase, greater than 700 nM; at PKC alpha kinase, greater than 1250 nM.
On the same counts, the results for `FC(F)(F)c1cc(-c2n[nH]c3ncccc23)nc(N2CCNCC2)c1` [Compound 94] are greater than 2000 nM, greater than 700 nM and greater than 1250 nM.
On the same counts, the results for `Cc1cc(N2CCNCC2)nc(-c2n[nH]c3ncccc23)c1Cl` [Compound 95] are less than 2800 nM, less than 2800 nM and greater than 1250 nM.
Regarding `FC(F)(F)c1ccc(N2CCCNCC2)nc1-c1n[nH]c2ncccc12` [Compound 97], the Ki at PKC delta kinase (read-out: Ki PKC delta) is greater than 2000 nM; on PKC theta kinase it was less than 500 nM; on PKC alpha kinase it was greater than 1250 nM.
On the same counts, the results for `CC(C)[C@H]1CN(c2ccc(C(F)(F)F)c(-c3n[nH]c4ncccc34)n2)CCN1` [Compound 98] are greater than 2000 nM, less than 500 nM and greater than 1250 nM.
For the compound `CC(C)C[C@@H]1CC(F)(c2cccc(-c3n[nH]c4ncccc34)n2)CCN1` (stereo partly drawn) [Compound 99], the figures for the Ki at PKC delta kinase (read-out: Ki PKC delta), at PKC theta kinase and at PKC alpha kinase were greater than 2000 nM, less than 500 nM and greater than 1250 nM, respectively.
Consider `COC(C)(C)CC1CN(c2ccc(C(F)(F)F)c(-c3n[nH]c4ncccc34)n2)CCN1` (stereo not drawn) [Compound 100], for which the figures for the Ki on PKC delta kinase (read-out: Ki PKC delta), at PKC theta kinase and at PKC alpha kinase were greater than 1250 nM, less than 500 nM and greater than 1250 nM, respectively.
With `COC(C)(C)CC1CN(c2cccc(-c3n[nH]c4ncccc34)n2)CCN1` (stereo not drawn) [Compound 101], the Ki was greater than 1250 nM at PKC delta kinase (read-out: Ki PKC delta), less than 50 nM at PKC theta kinase and greater than 1250 nM on PKC alpha kinase.
As for `CC(C)(F)CC1CN(c2ccc(C(F)(F)F)c(-c3n[nH]c4ncccc34)n2)CCN1` (stereo not drawn) [Compound 102], the results for the Ki at PKC delta kinase (read-out: Ki PKC delta), on PKC theta kinase and at PKC alpha kinase were greater than 1250 nM, less than 50 nM and greater than 1250 nM, respectively.
On to `C=C(C)CC1CN(c2ccc(C(F)(F)F)c(-c3n[nH]c4ncccc34)n2)CCN1` (stereo not drawn) [Compound 103], for which the Ki at PKC delta kinase (read-out: Ki PKC delta) is less than 500 nM; on PKC theta kinase, less than 50 nM; on PKC alpha kinase it was less than 2800 nM.
On the same counts, the results for `CC(C)=CC1CN(c2ccc(C(F)(F)F)c(-c3n[nH]c4ncccc34)n2)CCN1` (stereo not drawn) [Compound 104] are less than 2800 nM, less than 50 nM and less than 2800 nM.
On the same counts, the results for `CC(C)(O)C1CN(c2cccc(-c3n[nH]c4ncccc34)n2)CCN1` (stereo not drawn) [Compound 105] are less than 500 nM, less than 50 nM and greater than 1250 nM.
For `C=C(F)c1cc(-c2n[nH]c3ncccc23)nc(N2CCC(N)CC2)c1` [Compound 106], the Ki on PKC delta kinase (read-out: Ki PKC delta) was greater than 1250 nM; on PKC theta kinase it was less than 500 nM; at PKC alpha kinase, greater than 1250 nM.
Turning to `Cc1cc(-c2n[nH]c3ncccc23)nc(N2CCC(N)CC2)c1` [Compound 107], the figures for the Ki at PKC delta kinase (read-out: Ki PKC delta), on PKC theta kinase and on PKC alpha kinase were greater than 1250 nM, less than 500 nM and greater than 1250 nM, respectively.
In the case of `NC1CCN(c2cc(C(F)(F)F)cc(-c3n[nH]c4ncccc34)n2)CC1` [Compound 108], the Ki is less than 2800 nM at PKC delta kinase (read-out: Ki PKC delta), less than 500 nM at PKC theta kinase and greater than 1250 nM on PKC alpha kinase.
Taken in the same sequence, the figures for `Cc1cc(N2CCC(N)CC2)nc(-c2n[nH]c3ncccc23)c1Cl` [Compound 109] were greater than 1250 nM, less than 2800 nM and greater than 1250 nM.
Taken in the same sequence, the figures for `NC1CCN(c2ccc(Cl)c(-c3n[nH]c4ncccc34)n2)CC1` [Compound 110] were less than 2800 nM, less than 500 nM and greater than 1250 nM.
For `CC(C)C[C@H]1CC(O)(c2cccc(-c3n[nH]c4ncccc34)n2)CCN1` (stereo partly drawn) [Compound 111], the Ki is greater than 1250 nM at PKC delta kinase (read-out: Ki PKC delta), greater than 700 nM on PKC theta kinase and greater than 1250 nM on PKC alpha kinase.
In the case of `CCCC1CN(c2ccc(C(F)(F)F)c(-c3n[nH]c4ncccc34)n2)CCN1` (stereo not drawn) [Compound 113], the Ki on PKC delta kinase (read-out: Ki PKC delta) was greater than 1250 nM; at PKC theta kinase, less than 50 nM; at PKC alpha kinase it was greater than 1250 nM.
Consider `COc1ccccc1C1CN(c2ccc(C(F)(F)F)c(-c3n[nH]c4ncccc34)n2)CCN1` (stereo not drawn) [Compound 114], for which the Ki on PKC delta kinase (read-out: Ki PKC delta) is greater than 1250 nM; at PKC theta kinase, less than 500 nM; on PKC alpha kinase, greater than 1250 nM.
In the case of `Fc1cccc(C2CN(c3ccc(C(F)(F)F)c(-c4n[nH]c5ncccc45)n3)CCN2)c1` (stereo not drawn) [Compound 115], the Ki at PKC delta kinase (read-out: Ki PKC delta) is less than 2800 nM; on PKC theta kinase, less than 50 nM; on PKC alpha kinase, less than 2800 nM.
In the case of `C[C@H]1CN(c2ccc(C(F)(F)F)c(-c3n[nH]c4ncccc34)n2)CCN1` [Compound 116], the Ki at PKC delta kinase (read-out: Ki PKC delta) is less than 2800 nM; at PKC theta kinase, less than 500 nM; at PKC alpha kinase it was greater than 1250 nM.
For the compound `C[C@@H]1CN(c2ccc(C(F)(F)F)c(-c3n[nH]c4ncccc34)n2)CCN1` [Compound 117], the results for the Ki on PKC delta kinase (read-out: Ki PKC delta), at PKC theta kinase and at PKC alpha kinase were greater than 1250 nM, less than 500 nM and greater than 1250 nM, respectively.
As for `CC(C)C[C@H]1CN(c2cccc(-c3n[nH]c4ncccc34)n2)CC[C@H]1N` [Compound 118], the Ki is less than 500 nM on PKC delta kinase (read-out: Ki PKC delta), less than 50 nM at PKC theta kinase and less than 2800 nM on PKC alpha kinase.
On the same counts, the results for `CC(F)(F)CC1CN(c2ccc(C(F)(F)F)c(-c3n[nH]c4ncccc34)n2)CCN1` (stereo not drawn) [Compound 119] are greater than 1250 nM, less than 500 nM and greater than 1250 nM.
Taken in the same sequence, the figures for `FC(F)(F)c1ccc(N2CC3CCC(C2)N3)nc1-c1n[nH]c2ncccc12` [Compound 120] were less than 2800 nM, less than 500 nM and greater than 1250 nM.
In the case of `FC(F)(F)c1ccc(N2CCN[C@@H](Cc3ccccc3)C2)nc1-c1n[nH]c2ncccc12` [Compound 121], the values for the Ki on PKC delta kinase (read-out: Ki PKC delta), on PKC theta kinase and on PKC alpha kinase were greater than 1250 nM, less than 500 nM and greater than 1250 nM, respectively.
On to `NC1CCCN(c2ccc(C(F)(F)F)c(-c3n[nH]c4ncccc34)n2)C1` (stereo not drawn) [Compound 122], for which the Ki was greater than 1250 nM on PKC delta kinase (read-out: Ki PKC delta), greater than 700 nM at PKC theta kinase and greater than 1250 nM on PKC alpha kinase.
`CCCC1CN(c2ccc(Cl)c(-c3n[nH]c4ncccc34)n2)CCN1` (stereo not drawn) [Compound 123]: the Ki at PKC delta kinase (read-out: Ki PKC delta) was less than 2800 nM; at PKC theta kinase it was less than 50 nM; at PKC alpha kinase it was greater than 1250 nM.
On the same counts, the results for `Cc1ccccc1C1CN(c2ccc(C(F)(F)F)c(-c3n[nH]c4ncccc34)n2)CCN1` (stereo not drawn) [Compound 124] are greater than 1250 nM, less than 500 nM and greater than 1250 nM.
Taken in the same sequence, the figures for `NC1CCN(c2ccc(C(F)(F)F)c(-c3n[nH]c4ncccc34)n2)C1` (stereo not drawn) [Compound 125] were greater than 1250 nM, less than 2800 nM and greater than 1250 nM.
On the same counts, the results for `NC1CCN(c2ccc(C(F)(F)F)c(-c3n[nH]c4ncccc34)n2)CC1` [Compound 126] are greater than 1250 nM, less than 500 nM and greater than 1250 nM.
For `NCC1CCN(c2ccc(C(F)(F)F)c(-c3n[nH]c4ncccc34)n2)CC1` [Compound 127], the Ki on PKC delta kinase (read-out: Ki PKC delta) is greater than 1250 nM; on PKC theta kinase it was greater than 700 nM; on PKC alpha kinase, greater than 1250 nM.
Consider `NCC1CCCN(c2ccc(C(F)(F)F)c(-c3n[nH]c4ncccc34)n2)C1` (stereo not drawn) [Compound 128], for which the Ki was greater than 1250 nM at PKC delta kinase (read-out: Ki PKC delta), greater than 700 nM on PKC theta kinase and greater than 1250 nM on PKC alpha kinase.
For the compound `FC(F)(F)c1ccc(N2CCN[C@@H](c3ccccc3)C2)nc1-c1n[nH]c2ncccc12` [Compound 129], the Ki at PKC delta kinase (read-out: Ki PKC delta) is less than 2800 nM; at PKC theta kinase it was less than 50 nM; on PKC alpha kinase, less than 2800 nM.

The values are drawn from US9193722B2, “Tri-cyclic pyrazolopyridine kinase inhibitors” (Vertex Pharmaceuticals Incorporated, priority 2008, dated 2015).
